Source: paper PMC8151276, “An Integrated Approach toward NanoBRET Tracers for Analysis of GPCR Ligand Engagement” (Molecules, 2021)

Tests used:
Assay type in all cases: binding
SSTR4 = biological target: T1, SSTR4 (Homo sapiens, UniProt P31391); experiment: NanoBRET screen HiBiT-SSTR4 in HEK293; conditions: SSTR4
T1 construct: purchased Promega (in-house HiBiT-GPCR construct library, NanoBRET)
Description: (§1) Each tracer candidate was screened across the entire library of HiBiT-GPCR constructs using NanoBRET as the detection modality. As depicted in Figure 4A, the specificity of interactions was evaluated through decrease in BRET due to competitive displacement of a bound tracer by excess parental compound. Each tracer was analyzed for binding to each HiBiT-GPCR fusion in the absence and in the presence of competing parental compound. Briefly, HEK293 cells were transfected with HiBiT-GPCR constructs diluted into promoterless DNA to reduce expression and maximize translocation to the cell surface. Each tracer candidate was then screened at concentrations of 1 μM and 0.1 μM across cells expressing these fusions. Cells were treated for 1.5 h with tracer either alone or in the presence of 20 μM competing parental compound (i.e., control). BRET was measured upon addition of purified LgBiT and subsequent complementation with HiBiT genetically fused to a GPCR. The specificity of interactions was assessed through a decrease in BRET signal due to competitive displacement of the bound tracer. To further gauge the robustness of these interactions, the fold response over the control (i.e., BRETtracer/BRETcontrol) was calculated. We chose a 1.5-fold response, which translates to ≥7-fold signal over noise as the minimal threshold required to score an interaction as positive. […]. Below we highlight the screening results obtained for our exemplary fluorescent tracers based on Clozapine, Amitriptyline and AZD1283.
(§2) HiBiT-GPCR DNA constructs were diluted in 10 mM Tris pH 8 to a final concentration of 0.01 μg/μL, arrayed in 96-well plates and stored at −20 °C. For transfection, HEK293 cells were suspended in Opti-MEM (without phenol red) supplemented with 2% fetal bovine serum (Seradigm) and 100 units/mL penicillin–streptomycin (Gibco) at a final concentration of 220,000 cells/mL and dispensed into white 96-well plates at 90 μL/well. Subsequent transfections and screens were carried using an Agilent Bravo Automated Liquid Handling Platform. First, the 96-well HiBiT DNA arrays were diluted 25-fold in Opti-MEM (without serum or phenol red) to a final concentration of 0.0004 μg/μL and 20 μL of the diluted DNAs were transferred into new 96-well plates. Next, promoterless carrier DNA (1 μg/μL) was diluted 25-fold (0.04 μg/μL) and then dispensed into the diluted arrays at 20 μL/well. Following brief mixing, Viafect transfection reagent (Promega) diluted 16-fold into Opti-MEM was dispensed into the plates at 40 μL/well. After mixing by pipetting, plates were incubated for 10 min on the pipetting station deck. The DNA-transfection reagent complexes were then added to plates containing cells. To facilitate the screen, 10 μL of DNA-transfection reagent complexes were added in duplicates to the top 4 and bottom 4 rows, resulting in two identical 48-well arrays per plate. Plates with transfected cells were incubated for 18–20 h at 37 °C/5% CO2. A screen of each tracer across the entire library using two different concentrations requires duplicate plates of transfected cells. Depending on the number of tracers being screened, transfections can be scaled up using the same ratios. The next day, for each tracer, four 20× screening solutions in tracer dilution buffer (Promega) were prepared: two duplicates at final concentration of 20 μM and two duplicates at a final concentration of 2 μM. A competing unmodified compound was added to one of each duplicate at a final concentration of 400 μM. The four resulting solutions were diluted 4-fold in Opti-MEM without serum or phenol red to generate 5× solutions (5 µM and 0.5 µM tracer +/− 100 μM competing compound). To screen the library, a BioTek MultiFlo FX liquid dispenser was used to dispense 22.5 µL of tracer solution to the top 4 rows and 22.5 µL tracer + competing compound solution to the 4 bottom rows. Plates were briefly mixed on an orbital shaker and incubated for 1.5 h at room temperature. […]

BRS3 = biological target: T2, BRS3 (Homo sapiens, UniProt P32247); experiment: NanoBRET screen HiBiT-BRS3 in HEK293; conditions: BRS3
T2 construct: purchased Promega (in-house HiBiT-GPCR construct library, NanoBRET)
T2 sequence (P32247 1-399): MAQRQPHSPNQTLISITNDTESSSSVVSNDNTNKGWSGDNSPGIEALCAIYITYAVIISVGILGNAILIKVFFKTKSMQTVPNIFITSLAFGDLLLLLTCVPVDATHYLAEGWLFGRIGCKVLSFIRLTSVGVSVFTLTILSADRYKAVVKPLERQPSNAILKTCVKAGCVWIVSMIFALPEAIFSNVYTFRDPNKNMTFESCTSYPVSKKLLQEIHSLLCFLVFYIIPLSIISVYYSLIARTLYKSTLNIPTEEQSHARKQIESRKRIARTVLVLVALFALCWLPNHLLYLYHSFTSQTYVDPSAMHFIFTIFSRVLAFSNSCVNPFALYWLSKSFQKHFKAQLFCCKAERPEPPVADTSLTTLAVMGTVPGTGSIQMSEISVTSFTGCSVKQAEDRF
Description: as §1, §2

OXTR = biological target: T3, OXTR (Homo sapiens, UniProt P30559); experiment: NanoBRET screen HiBiT-OXTR in HEK293; conditions: OXTR
T3 construct: purchased Promega (in-house HiBiT-GPCR construct library, NanoBRET)
T3 sequence (P30559 1-389): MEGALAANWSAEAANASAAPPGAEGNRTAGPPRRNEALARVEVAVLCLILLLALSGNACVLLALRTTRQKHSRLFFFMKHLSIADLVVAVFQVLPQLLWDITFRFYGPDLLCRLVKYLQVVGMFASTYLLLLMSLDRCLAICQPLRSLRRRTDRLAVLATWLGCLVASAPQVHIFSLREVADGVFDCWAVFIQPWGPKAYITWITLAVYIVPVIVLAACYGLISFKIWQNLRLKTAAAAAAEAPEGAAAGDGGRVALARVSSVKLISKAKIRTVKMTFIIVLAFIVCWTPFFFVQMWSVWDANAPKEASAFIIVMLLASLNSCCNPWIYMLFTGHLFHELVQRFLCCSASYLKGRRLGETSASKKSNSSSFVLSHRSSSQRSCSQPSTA
Description: as §1, §2

CCR3 = biological target: T4, CCR3 (Homo sapiens, UniProt P51677); experiment: NanoBRET screen HiBiT-CCR3 in HEK293; conditions: CCR3
T4 construct: purchased Promega (in-house HiBiT-GPCR construct library, NanoBRET)
T4 sequence (P51677 1-355): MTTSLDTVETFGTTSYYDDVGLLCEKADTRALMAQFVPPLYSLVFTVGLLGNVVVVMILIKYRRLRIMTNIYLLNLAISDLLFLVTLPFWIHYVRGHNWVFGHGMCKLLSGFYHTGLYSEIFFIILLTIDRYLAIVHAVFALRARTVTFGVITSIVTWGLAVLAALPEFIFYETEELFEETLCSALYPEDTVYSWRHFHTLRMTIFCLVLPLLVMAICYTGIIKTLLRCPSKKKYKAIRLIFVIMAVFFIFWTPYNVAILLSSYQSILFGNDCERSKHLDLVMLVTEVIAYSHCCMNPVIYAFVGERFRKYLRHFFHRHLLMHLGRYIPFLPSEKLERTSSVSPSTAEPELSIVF
Description: as §1, §2

GRM4 = biological target: T5, GRM4 (Homo sapiens, UniProt Q14833); experiment: NanoBRET screen HiBiT-GRM4 in HEK293; conditions: GRM4
T5 construct: purchased Promega (in-house HiBiT-GPCR construct library, NanoBRET)
Description: as §1, §2

T1 sequence (P31391 whole entry): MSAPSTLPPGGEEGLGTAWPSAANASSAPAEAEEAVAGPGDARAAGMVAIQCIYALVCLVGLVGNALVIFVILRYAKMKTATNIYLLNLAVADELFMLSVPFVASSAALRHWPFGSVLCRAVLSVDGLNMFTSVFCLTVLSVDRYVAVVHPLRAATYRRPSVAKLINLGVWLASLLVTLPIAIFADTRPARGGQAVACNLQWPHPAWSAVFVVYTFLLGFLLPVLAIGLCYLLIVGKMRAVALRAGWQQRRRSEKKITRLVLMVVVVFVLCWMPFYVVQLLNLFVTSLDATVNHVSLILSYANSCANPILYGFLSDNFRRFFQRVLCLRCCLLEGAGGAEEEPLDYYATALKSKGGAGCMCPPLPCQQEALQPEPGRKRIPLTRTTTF
T5 sequence (Q14833 33-912): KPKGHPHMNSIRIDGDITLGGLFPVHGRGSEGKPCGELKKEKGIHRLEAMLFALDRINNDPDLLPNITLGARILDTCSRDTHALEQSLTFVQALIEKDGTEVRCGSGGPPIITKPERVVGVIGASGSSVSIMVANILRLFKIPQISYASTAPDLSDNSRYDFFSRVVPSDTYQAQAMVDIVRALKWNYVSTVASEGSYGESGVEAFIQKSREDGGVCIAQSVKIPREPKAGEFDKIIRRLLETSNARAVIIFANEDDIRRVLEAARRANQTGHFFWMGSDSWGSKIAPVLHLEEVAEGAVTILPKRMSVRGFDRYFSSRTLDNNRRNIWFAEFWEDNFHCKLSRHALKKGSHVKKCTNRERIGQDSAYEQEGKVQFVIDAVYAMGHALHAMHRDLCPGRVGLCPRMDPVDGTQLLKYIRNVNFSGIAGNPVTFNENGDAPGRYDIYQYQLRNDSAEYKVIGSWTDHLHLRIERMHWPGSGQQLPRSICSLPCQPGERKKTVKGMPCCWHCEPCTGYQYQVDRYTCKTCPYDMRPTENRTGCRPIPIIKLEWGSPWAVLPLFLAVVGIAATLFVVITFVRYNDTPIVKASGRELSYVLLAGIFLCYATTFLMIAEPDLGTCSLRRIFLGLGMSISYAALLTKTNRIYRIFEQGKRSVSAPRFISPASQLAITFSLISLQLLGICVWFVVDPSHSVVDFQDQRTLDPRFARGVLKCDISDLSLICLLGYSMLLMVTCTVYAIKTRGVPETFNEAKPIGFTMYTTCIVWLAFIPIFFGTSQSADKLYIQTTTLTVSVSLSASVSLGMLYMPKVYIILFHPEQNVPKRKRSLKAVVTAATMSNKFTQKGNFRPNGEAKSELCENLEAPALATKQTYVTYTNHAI

NanoBRET Fold Response (SSTR4; 0.1μM tracer)	NanoBRET Fold Response (SSTR4; 1μM tracer)	NanoBRET Fold Response (BRS3; 0.1μM tracer)	NanoBRET Fold Response (BRS3; 1μM tracer)	NanoBRET Fold Response (OXTR; 0.1μM tracer)	NanoBRET Fold Response (OXTR; 1μM tracer)	NanoBRET Fold Response (CCR3; 0.1μM tracer)	NanoBRET Fold Response (CCR3; 1μM tracer)	NanoBRET Fold Response (GRM4; 0.1μM tracer)	NanoBRET Fold Response (GRM4; 1μM tracer)	SMILES	NanoBRET Fold Response (SSTR4; 0.1μM)	NanoBRET Fold Response (SSTR4; 1μM)	NanoBRET Fold Response (BRS3; 0.1μM)	NanoBRET Fold Response (BRS3; 1μM)	NanoBRET Fold Response (OXTR; 0.1μM)	NanoBRET Fold Response (OXTR; 1μM)	NanoBRET Fold Response (CCR3; 0.1μM)	NanoBRET Fold Response (CCR3; 1μM)	NanoBRET Fold Response (GRM4; 0.1μM)	NanoBRET Fold Response (GRM4; 1μM)
–	–	–	–	–	–	–	–	–	–	O=C(CCc1ccc2n1[B-](F)(F)[N+]1=C(c3ccc[nH]3)C=CC1=C2)NCc1ccc(C(=O)NCCOCCOCCNCC(O)COc2cccc3ccccc23)cc1 (centres unmarked) [Propranolol-3-NB590]	1.02	0.98	1.03	1.08	1.04	0.98	1.04	1.01	1.11	1.04
1.11	1.20	1.09	1.15	1.03	1.01	0.95	0.78	1.02	0.99	O=C(CCOCCOCCOCCOCCNC(=O)CCc1ccc2n1[B-](F)(F)[N+]1=C(c3ccc[nH]3)C=CC1=C2)NCCCN1CCN(C2=Nc3cc(Cl)ccc3Nc3ccccc32)CC1 [Clozapine-a-2-NB590]	–	–	–	–	–	–	–	–	–	–
